# Results: US7118895B2, “Process for producing aglycon by using diglycosidase and flavor-improved food containing the aglycon and converting agent to be used in the process” (Amano Enzyme Inc., priority 2000, dated 2006)
# Tests used:
# [1] = test system: β-Glucosidase derived from A. niger; assay: Reactivity toward various isoflavone glycosides (HPLC); format: biochemical, Aspergillus niger; design: glucoside / aglycon: unit not given here; settings: 55 °C, pH 4.0
# Summary of the method: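 Aglycone liberation was measured by reversed-phase HPLC (260 nm, calibration-curve quantitation) after ethanol extraction at 0, 1, 3 and 6 h. Reactions ran at 55° C, pH 4.0 (20 mM acetate), with each glycoside (from 2 mM methanol stock) and 0.75 AU/mL enzyme solution.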
# Crude diglycosidase = assay: Examination of substrate concentration in the conversion into isoflavone aglycons by diglycosidase using soybean materials; format: biochemical, Penicillium multicolor IAM7153;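 as to Decomposition efficiency: ratio of each glycoside/aglycon within its isoflavone family: percent of the isoflavone family total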
# Summary of the method: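 Reaction at 55° C, shaken, pH 4.0 (20 mM acetate), using crude diglycosidase from a 1.88 AU/mL enzyme solution on soy flour, soymilk, defatted soybean or soy protein concentrate at 2, 5, 10, 20 or 30% (w/v). Isoflavone aglycons quantified by HPLC of ethanol extracts at 0, 1, 3, 6 h.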
smiles,measurement,setting,value
"CC(=O)OC[C@H]1O[C@@H](Oc2cc(O)c3c(=O)c(-c4ccc(O)cc4)coc3c2)[C@H](O)[C@@H](O)[C@@H]1O [acetylgenistin, 6″-O-acetylgenistin]",aglycon,[1]; Reaction time 0 h,0
same,glucoside,[1]; Reaction time 0 h,100
same,aglycon,[1]; Reaction time 1 h,1.4
same,glucoside,[1]; Reaction time 1 h,98.6
same,aglycon,[1]; Reaction time 3 h,3.3
same,glucoside,[1]; Reaction time 3 h,96.7
same,aglycon,[1]; Reaction time 6 h,6.2
same,glucoside,[1]; Reaction time 6 h,93.8
same,Decomposition efficiency: ratio of each glycoside/aglycon within its isoflavone family,"Crude diglycosidase; concentrated soybean protein, substrate concentration 2%, heat treatment of enzyme no, reaction time 0 h",42.9%
same,Decomposition efficiency: ratio of each glycoside/aglycon within its isoflavone family,"Crude diglycosidase; concentrated soybean protein, substrate concentration 2%, heat treatment of enzyme no, reaction time 1 h",20.0%
same,Decomposition efficiency: ratio of each glycoside/aglycon within its isoflavone family,"Crude diglycosidase; concentrated soybean protein, substrate concentration 2%, heat treatment of enzyme no, reaction time 3 h",8.3%
same,Decomposition efficiency: ratio of each glycoside/aglycon within its isoflavone family,"Crude diglycosidase; concentrated soybean protein, substrate concentration 2%, heat treatment of enzyme no, reaction time 6 h",3.3%
same,Decomposition efficiency: ratio of each glycoside/aglycon within its isoflavone family,"Crude diglycosidase; concentrated soybean protein, substrate concentration 2%, heat treatment of enzyme yes, reaction time 6 h",41.3%
same,Decomposition efficiency: ratio of each glycoside/aglycon within its isoflavone family,"Crude diglycosidase; concentrated soybean protein, substrate concentration 5%, heat treatment of enzyme no, reaction time 0 h",43.1%
same,Decomposition efficiency: ratio of each glycoside/aglycon within its isoflavone family,"Crude diglycosidase; concentrated soybean protein, substrate concentration 5%, heat treatment of enzyme no, reaction time 1 h",36.4%
same,Decomposition efficiency: ratio of each glycoside/aglycon within its isoflavone family,"Crude diglycosidase; concentrated soybean protein, substrate concentration 5%, heat treatment of enzyme no, reaction time 3 h",26.3%
same,Decomposition efficiency: ratio of each glycoside/aglycon within its isoflavone family,"Crude diglycosidase; concentrated soybean protein, substrate concentration 5%, heat treatment of enzyme no, reaction time 6 h",17.8%
same,Decomposition efficiency: ratio of each glycoside/aglycon within its isoflavone family,"Crude diglycosidase; concentrated soybean protein, substrate concentration 5%, heat treatment of enzyme yes, reaction time 6 h",41.7%
same,Decomposition efficiency: ratio of each glycoside/aglycon within its isoflavone family,"Crude diglycosidase; concentrated soybean protein, substrate concentration 10%, heat treatment of enzyme no, reaction time 0 h",43.4%
same,Decomposition efficiency: ratio of each glycoside/aglycon within its isoflavone family,"Crude diglycosidase; concentrated soybean protein, substrate concentration 10%, heat treatment of enzyme no, reaction time 1 h",42.8%
same,Decomposition efficiency: ratio of each glycoside/aglycon within its isoflavone family,"Crude diglycosidase; concentrated soybean protein, substrate concentration 10%, heat treatment of enzyme no, reaction time 3 h",37.3%
same,Decomposition efficiency: ratio of each glycoside/aglycon within its isoflavone family,"Crude diglycosidase; concentrated soybean protein, substrate concentration 10%, heat treatment of enzyme no, reaction time 6 h",33.2%
same,Decomposition efficiency: ratio of each glycoside/aglycon within its isoflavone family,"Crude diglycosidase; concentrated soybean protein, substrate concentration 10%, heat treatment of enzyme yes, reaction time 6 h",42.8%
same,Decomposition efficiency: ratio of each glycoside/aglycon within its isoflavone family,"Crude diglycosidase; concentrated soybean protein, substrate concentration 20%, heat treatment of enzyme no, reaction time 0 h",43.7%
same,Decomposition efficiency: ratio of each glycoside/aglycon within its isoflavone family,"Crude diglycosidase; concentrated soybean protein, substrate concentration 20%, heat treatment of enzyme no, reaction time 1 h",47.0%
same,Decomposition efficiency: ratio of each glycoside/aglycon within its isoflavone family,"Crude diglycosidase; concentrated soybean protein, substrate concentration 20%, heat treatment of enzyme no, reaction time 3 h",44.6%
same,Decomposition efficiency: ratio of each glycoside/aglycon within its isoflavone family,"Crude diglycosidase; concentrated soybean protein, substrate concentration 20%, heat treatment of enzyme no, reaction time 6 h",42.3%
same,Decomposition efficiency: ratio of each glycoside/aglycon within its isoflavone family,"Crude diglycosidase; concentrated soybean protein, substrate concentration 20%, heat treatment of enzyme yes, reaction time 6 h",43.2%
same,Decomposition efficiency: ratio of each glycoside/aglycon within its isoflavone family,"Crude diglycosidase; concentrated soybean protein, substrate concentration 30%, heat treatment of enzyme no, reaction time 0 h",43.5%
same,Decomposition efficiency: ratio of each glycoside/aglycon within its isoflavone family,"Crude diglycosidase; concentrated soybean protein, substrate concentration 30%, heat treatment of enzyme no, reaction time 1 h",65.3%
same,Decomposition efficiency: ratio of each glycoside/aglycon within its isoflavone family,"Crude diglycosidase; concentrated soybean protein, substrate concentration 30%, heat treatment of enzyme no, reaction time 3 h",61.0%
same,Decomposition efficiency: ratio of each glycoside/aglycon within its isoflavone family,"Crude diglycosidase; concentrated soybean protein, substrate concentration 30%, heat treatment of enzyme no, reaction time 6 h",55.9%
same,Decomposition efficiency: ratio of each glycoside/aglycon within its isoflavone family,"Crude diglycosidase; concentrated soybean protein, substrate concentration 30%, heat treatment of enzyme yes, reaction time 6 h",42.4%
same,Decomposition efficiency: ratio of each glycoside/aglycon within its isoflavone family,"Crude diglycosidase; roasted soy flour, substrate concentration 2%, heat treatment of enzyme no, reaction time 0 h",44.7%
same,Decomposition efficiency: ratio of each glycoside/aglycon within its isoflavone family,"Crude diglycosidase; roasted soy flour, substrate concentration 2%, heat treatment of enzyme no, reaction time 1 h",10.6%
same,Decomposition efficiency: ratio of each glycoside/aglycon within its isoflavone family,"Crude diglycosidase; roasted soy flour, substrate concentration 2%, heat treatment of enzyme no, reaction time 3 h",5.0%
same,Decomposition efficiency: ratio of each glycoside/aglycon within its isoflavone family,"Crude diglycosidase; roasted soy flour, substrate concentration 2%, heat treatment of enzyme no, reaction time 6 h",1.5%
same,Decomposition efficiency: ratio of each glycoside/aglycon within its isoflavone family,"Crude diglycosidase; roasted soy flour, substrate concentration 2%, heat treatment of enzyme yes, reaction time 6 h",45.0%
same,Decomposition efficiency: ratio of each glycoside/aglycon within its isoflavone family,"Crude diglycosidase; roasted soy flour, substrate concentration 5%, heat treatment of enzyme no, reaction time 0 h",44.7%
same,Decomposition efficiency: ratio of each glycoside/aglycon within its isoflavone family,"Crude diglycosidase; roasted soy flour, substrate concentration 5%, heat treatment of enzyme no, reaction time 1 h",22.1%
same,Decomposition efficiency: ratio of each glycoside/aglycon within its isoflavone family,"Crude diglycosidase; roasted soy flour, substrate concentration 5%, heat treatment of enzyme no, reaction time 3 h",15.2%
same,Decomposition efficiency: ratio of each glycoside/aglycon within its isoflavone family,"Crude diglycosidase; roasted soy flour, substrate concentration 5%, heat treatment of enzyme no, reaction time 6 h",9.2%
same,Decomposition efficiency: ratio of each glycoside/aglycon within its isoflavone family,"Crude diglycosidase; roasted soy flour, substrate concentration 5%, heat treatment of enzyme yes, reaction time 6 h",44.7%
same,Decomposition efficiency: ratio of each glycoside/aglycon within its isoflavone family,"Crude diglycosidase; roasted soy flour, substrate concentration 10%, heat treatment of enzyme no, reaction time 0 h",38.2%
same,Decomposition efficiency: ratio of each glycoside/aglycon within its isoflavone family,"Crude diglycosidase; roasted soy flour, substrate concentration 10%, heat treatment of enzyme no, reaction time 1 h",33.3%
same,Decomposition efficiency: ratio of each glycoside/aglycon within its isoflavone family,"Crude diglycosidase; roasted soy flour, substrate concentration 10%, heat treatment of enzyme no, reaction time 3 h",25.3%
same,Decomposition efficiency: ratio of each glycoside/aglycon within its isoflavone family,"Crude diglycosidase; roasted soy flour, substrate concentration 10%, heat treatment of enzyme no, reaction time 6 h",18.7%
same,Decomposition efficiency: ratio of each glycoside/aglycon within its isoflavone family,"Crude diglycosidase; roasted soy flour, substrate concentration 10%, heat treatment of enzyme yes, reaction time 6 h",45.9%
same,Decomposition efficiency: ratio of each glycoside/aglycon within its isoflavone family,"Crude diglycosidase; roasted soy flour, substrate concentration 20%, heat treatment of enzyme no, reaction time 0 h",46.1%
same,Decomposition efficiency: ratio of each glycoside/aglycon within its isoflavone family,"Crude diglycosidase; roasted soy flour, substrate concentration 20%, heat treatment of enzyme no, reaction time 1 h",44.1%
same,Decomposition efficiency: ratio of each glycoside/aglycon within its isoflavone family,"Crude diglycosidase; roasted soy flour, substrate concentration 20%, heat treatment of enzyme no, reaction time 3 h",35.8%
same,Decomposition efficiency: ratio of each glycoside/aglycon within its isoflavone family,"Crude diglycosidase; roasted soy flour, substrate concentration 20%, heat treatment of enzyme no, reaction time 6 h",28.6%
same,Decomposition efficiency: ratio of each glycoside/aglycon within its isoflavone family,"Crude diglycosidase; roasted soy flour, substrate concentration 20%, heat treatment of enzyme yes, reaction time 6 h",46.2%
same,Decomposition efficiency: ratio of each glycoside/aglycon within its isoflavone family,"Crude diglycosidase; roasted soy flour, substrate concentration 30%, heat treatment of enzyme no, reaction time 0 h",46.7%
same,Decomposition efficiency: ratio of each glycoside/aglycon within its isoflavone family,"Crude diglycosidase; roasted soy flour, substrate concentration 30%, heat treatment of enzyme no, reaction time 1 h",46.6%
same,Decomposition efficiency: ratio of each glycoside/aglycon within its isoflavone family,"Crude diglycosidase; roasted soy flour, substrate concentration 30%, heat treatment of enzyme no, reaction time 3 h",41.4%
same,Decomposition efficiency: ratio of each glycoside/aglycon within its isoflavone family,"Crude diglycosidase; roasted soy flour, substrate concentration 30%, heat treatment of enzyme no, reaction time 6 h",37.8%
same,Decomposition efficiency: ratio of each glycoside/aglycon within its isoflavone family,"Crude diglycosidase; roasted soy flour, substrate concentration 30%, heat treatment of enzyme yes, reaction time 6 h",46.1%
same,Decomposition efficiency of genistin family in defatted soybean,"Crude diglycosidase; substrate concentration 2%, heat treatment of enzyme no, reaction time 0 h",1.8
same,Decomposition efficiency of genistin family in defatted soybean,"Crude diglycosidase; substrate concentration 2%, heat treatment of enzyme no, reaction time 1 h",not detected
same,Decomposition efficiency of genistin family in defatted soybean,"Crude diglycosidase; substrate concentration 2%, heat treatment of enzyme no, reaction time 3 h",not detected
same,Decomposition efficiency of genistin family in defatted soybean,"Crude diglycosidase; substrate concentration 2%, heat treatment of enzyme no, reaction time 6 h",not detected
same,Decomposition efficiency of genistin family in defatted soybean,"Crude diglycosidase; substrate concentration 2%, heat treatment of enzyme yes, reaction time 6 h",1.5
same,Decomposition efficiency of genistin family in defatted soybean,"Crude diglycosidase; substrate concentration 5%, heat treatment of enzyme no, reaction time 0 h",1.9
same,Decomposition efficiency of genistin family in defatted soybean,"Crude diglycosidase; substrate concentration 5%, heat treatment of enzyme no, reaction time 1 h",0.8
same,Decomposition efficiency of genistin family in defatted soybean,"Crude diglycosidase; substrate concentration 5%, heat treatment of enzyme no, reaction time 3 h",0.5
same,Decomposition efficiency of genistin family in defatted soybean,"Crude diglycosidase; substrate concentration 5%, heat treatment of enzyme no, reaction time 6 h",0.3
same,Decomposition efficiency of genistin family in defatted soybean,"Crude diglycosidase; substrate concentration 5%, heat treatment of enzyme yes, reaction time 6 h",1.8
same,Decomposition efficiency of genistin family in defatted soybean,"Crude diglycosidase; substrate concentration 10%, heat treatment of enzyme no, reaction time 0 h",1.9
same,Decomposition efficiency of genistin family in defatted soybean,"Crude diglycosidase; substrate concentration 10%, heat treatment of enzyme no, reaction time 1 h",1.3
same,Decomposition efficiency of genistin family in defatted soybean,"Crude diglycosidase; substrate concentration 10%, heat treatment of enzyme no, reaction time 3 h",0.9
same,Decomposition efficiency of genistin family in defatted soybean,"Crude diglycosidase; substrate concentration 10%, heat treatment of enzyme no, reaction time 6 h",0.6
same,Decomposition efficiency of genistin family in defatted soybean,"Crude diglycosidase; substrate concentration 10%, heat treatment of enzyme yes, reaction time 6 h",1.7
